Reference: patent publication US20120121708A1 (National Taiwan University, priority 2010, published 2012)

Assays:
[1] = dissolution rate analysis by dissolution tester (Weibull model); assay type: physicochemical
Protocol: The microparticle morphology and size are detected by the scanning electron microscopy (SEM). The particle size distribution (PSD) is analyzed by the image analysis software “Image J”. The crystal properties are analyzed by the X-Ray diffractometer. The changes in the crystal form are detected by the differential scanning calorimetry (DSC). […] The analyses of the dissolution rate are performed by the dissolution tester.

[2] = background statement; cited from earlier work

In the case of CC(=O)Nc1nnc(S(N)(=O)=O)s1 [acetazolamide bulk drug, acetazolamide], the dissolution rate coefficient [1] is listed as 0.0626 min⁻¹ and the “particle size of commercial acetazolamide drug” value [2] is listed as “about 20 μm”.
